Here are results for five molecules from article PMC9331716, “Nucleoside Transport and Nucleobase Uptake Null Mutants in Leishmania mexicana for the Routine Expression and Characterization of Purine and Pyrimidine Transporters” (International Journal of Molecular Sciences, 2022).

Several values for one entry are separate records, joined by “and”; a condition that tells them apart may be missing. Identical values can stand only once.

Series [1] concerns Lmex5FURes cells. As to the kind of experiment: Radiolabel transport assay in Lmex5FURes cells. It counts as cell-based, Leishmania mexicana. As to the method:
(§1) Transport assays were performed exactly as described previously. Briefly, 10^7 cells in 100 μL of assay buffer (AB) were mixed with an equal volume of radiolabel at 2× concentration for a preset time. The incubation was terminated by the addition of 700 μL of “Stop solution”, being ice-cold 1 mM solution of unlabelled permeant, followed by immediate centrifugation through an oil layer in a microfuge at 13,000 rpm. This causes the cell pellet to reside under the oil layer and isolated from residual radiolabel in the assay buffer. The tubes were flash-frozen in liquid nitrogen and the bottom tip, containing the cell pellet, cut off and collected in a scintillation tube. Cells were solubilized by gentle shaking after addition of a 2% SDS solution, before the addition of scintillation fluid (Scintilogic U, Lablogic, Sheffield, UK); the tubes were left to stand in the dark overnight before counting in a 300SL Hidex Scintillation Counter (Lablogic). Linear and nonlinear regression analyses were carried out using GraphPad Prism versions 8.0 and higher. […] However, all parameters, including Km, Vmax, Ki, given are the average of at least three separate, independent determinations; errors given are standard errors, unless otherwise specified.

The target in series [2] is FurD. Also on record: method as in PMID 17520477. To be noted: FurD in A. nidulans, cited from earlier work.
In series [3] the target is Aspergillus nidulans uracil transporter FurD (Aspergillus nidulans, UniProt A6N844). As to the kind of experiment: Transport assay, FurD expressed in Lmex5FURes. It counts as cell-based. As to the method:
as §1

In series [4] the target is T1, TvagENT3 (Trichomonas vaginalis, UniProt A2E5Q3). Put plainly: cell-based. As to the method:
as §1

For series [5], the system named is LmexNT1.1. As to the kind of experiment: Transport assay, LmexNT1.1 expressed in SUPKO. It counts as cell-based, Leishmania mexicana. Conditions: SUPKO expressing LmexNT1.1, 50 nM radiolabel. As to the method:
as §1

Series [6] relates to L. mexicana SUPKO (ΔNT1.1/1.2/2) cells. Put plainly: Radiolabel transport assay in SUPKO cells. Conditions: for rate of uptake: SUPKO cells. It counts as cell-based, Leishmania mexicana. The method, then:
as §1

Series [7] relates to L. mexicana cas9 cells. Put plainly: Radiolabel transport assay in cas9 cells. To be noted: for rate of uptake: cas9 cells. It counts as cell-based, Leishmania mexicana. The method, then: as §1
Series [8] deals with L. mexicana NT3-KO promastigotes. As to the kind of experiment: Radiolabel transport assay in NT3-KO cells. It counts as cell-based, Leishmania mexicana. As to the method: as §1
Series [9] concerns L. mexicana NT1-KO cells. Put plainly: Radiolabel transport assay in NT1-KO cells. It is filed as cell-based, Leishmania mexicana. As to the method:
as §1

Series [10] concerns the target T1, TvagENT3. To be noted: TvagENT3 expressed in T. brucei; cited from earlier work.
Series [11] has as its target T2, TcrNB2 (Trypanosoma cruzi, UniProt Q4DHG0).
T2 sequence (Q4DHG0 1-440): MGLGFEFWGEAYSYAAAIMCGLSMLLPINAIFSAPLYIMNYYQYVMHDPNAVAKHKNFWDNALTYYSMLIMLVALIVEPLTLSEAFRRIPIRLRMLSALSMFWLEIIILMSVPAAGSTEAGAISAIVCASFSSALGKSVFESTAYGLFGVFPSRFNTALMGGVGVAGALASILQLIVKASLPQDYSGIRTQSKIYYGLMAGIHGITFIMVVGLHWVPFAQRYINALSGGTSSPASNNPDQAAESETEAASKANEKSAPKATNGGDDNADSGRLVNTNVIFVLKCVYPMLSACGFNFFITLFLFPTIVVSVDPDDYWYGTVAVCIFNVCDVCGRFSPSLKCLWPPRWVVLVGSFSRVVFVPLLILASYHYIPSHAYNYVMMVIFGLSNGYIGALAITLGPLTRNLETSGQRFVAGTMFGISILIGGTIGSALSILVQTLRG
As to the kind of experiment: Transport assay, TcrNB2 expressed in LmexNT3-KO. It counts as cell-based. To be noted: 1 mM inhibitor, TcrNB2 in NT3-KO; read-out: inhibition of adenine uptake. As to the method:
as §1

Series [12] relates to LmexNT1.2. As to the kind of experiment: Transport assay, LmexNT1.2 expressed in SUPKO. It counts as cell-based, Leishmania mexicana. Conditions: SUPKO expressing LmexNT1.2, 50 nM radiolabel. The method, then: as §1
Series [13] addresses T2, TcrNB2. Put plainly: Transport assay, TcrNB2 expressed in NT1-KO. It counts as cell-based. Conditions: 50 nM [^3H]-adenosine, 100 nM [^3H]-hypoxanthine, 100 nM [^3H]-uracil; data not shown. As to the method:
as §1

The test system of series [14] is L. mexicana cas9 cells. Put plainly: Growth curve of cas9 cells with selection agents. It counts as cell-based, Leishmania mexicana. Conditions: 5 μM tubercidin, 5 μg/mL blasticidin, 20 µg/mL puromycin, 1 µM formycin B. As to the method:
The growth rates of the L. mexicana promastigotes were determined in the standard HOMEM medium supplemented with 10% FBS, in 12-well plates, in triplicate. After every 24 h, cells were counted in a sample of the culture, using either a Neubauer hemocytometer chamber (Hawksley, Birmingham, UK) or by a coulter particle counter and size analyzer (Beckman, Brea, CA, USA) to count the cells in triplicate. An average of the triplicate readings was taken and plotted using GraphPad Prism 8 software to obtain the growth curves.

Series [15] relates to L. mexicana NT2-KO promastigotes. As to the kind of experiment: Resazurin (Alamar blue) drug sensitivity assay, NT2-KO line. It counts as cell-based. Conditions: Leishmania mexicana, NT2-KO strain, n = 3. The method, then: (§2) The assay is based on the reduction of the dye resazurin (Alamar blue) by live but not dead cells and was performed with various strains of Leishmania mexicana promastigotes, exactly as described. Briefly, doubling dilutions starting at 100 µM were set up over 2 rows of a 96-well plate and 2 × 10^5 cells were added to each well, followed by incubation at 25 °C. After 72 h, 20 µL of 125 µg/mL resazurin solution was added and the plates incubated for a further 24 h. Fluorescence was determined in a FLUOstar OPTIMA plate reader (BMG Labtech, Ortenberg, Germany), reading the fluorescence intensity in arbitrary units (A.U.) at 544 nm wavelength for excitation and 620 nm wavelength for emission. The EC50 values and fluorescence data were determined and plotted to a sigmoid curve with variable slope, using the GraphPad Prism 8 software package. All EC50 values were determined on at least three independent occasions and are presented as average ± SEM.
In general terms: Resazurin is reduced to fluorescent resorufin, in cell work by metabolically active cells.

For series [16], the system named is L. mexicana cas9 promastigotes. As to the kind of experiment: Resazurin (Alamar blue) drug sensitivity assay, cas9 control line. It counts as cell-based. Conditions: Leishmania mexicana, n = 3. As to the method:
as §2

In series [17] the target is L. major U1 transporter. Also on record: method as in PMID 15796010. To be noted: unit printed only with the uridine value; cited from earlier work.
Substrate in series [18]: O=c1cc[nH]c(=O)[nH]1
As to the kind of experiment: Transport assay, FurD expressed in Lmex5FURes. It counts as cell-based, Aspergillus nidulans. To be noted: other: FurD in Lmex5FURes, 100 nM [^3H]-uracil over 10 s. The method, then:
as §1

Setting [19] is: 50 nM radiolabel, listed as [^3H]-adenosine.

T1 sequence (A2E5Q3 entry or part of it): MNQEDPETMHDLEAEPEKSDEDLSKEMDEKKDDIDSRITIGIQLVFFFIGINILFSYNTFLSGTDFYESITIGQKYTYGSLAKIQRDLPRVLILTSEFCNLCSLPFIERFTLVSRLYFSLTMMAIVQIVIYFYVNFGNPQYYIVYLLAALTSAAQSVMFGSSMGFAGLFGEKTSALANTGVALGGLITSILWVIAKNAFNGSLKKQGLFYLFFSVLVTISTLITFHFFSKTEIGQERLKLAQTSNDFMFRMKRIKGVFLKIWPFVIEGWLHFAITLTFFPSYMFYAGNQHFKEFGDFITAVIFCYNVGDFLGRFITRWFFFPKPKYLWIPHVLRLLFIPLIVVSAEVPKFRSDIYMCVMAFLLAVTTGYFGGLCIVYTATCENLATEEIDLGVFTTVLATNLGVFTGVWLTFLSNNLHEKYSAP

The Ki is a dissociation constant, usually derived from enzyme kinetics or from competition with a known ligand. As for `O=c1[nH]cc(F)c(=O)[nH]1` [5FU, 5-fluorouracil], the “uptake in Lmex5FURes control” value in series [1] (100 nM [^3H]-5FU, p = 0.27) is given as “not significantly different from zero”. Further, the Ki in series [2] (unit printed only with the uracil Km) was 460 nM; in series [3] (FurD in Lmex5FURes, inhibition of [^3H]-uracil uptake), 700 ± 250 nM.
In general, inhibition refers to the drop in the measured response relative to a control, in per cent. In the case of `Nc1ncnc2c1ncn2[C@@H]1O[C@H](CO)[C@@H](O)[C@H]1O` [adenosine], the “uptake lower in SUPKO than in SUPKO expressing TvagENT3” value in [4] (50 nM radiolabel) is reported as 94.6%. For the same molecule, the rate of uptake in [4] (SUPKO expressing TvagENT3, 50 nM radiolabel) was 0.0080 ± 0.0004 pmol(10^7 cells)^−1s^−1; in series [5], 0.27 ± 0.006 pmol(10^7 cells)^−1s^−1; in series [6] (50 nM radiolabel), 0.00063 pmol(10^7 cells)^−1s^−1; in series [6] (setting [19]), 0.0006 ± 0.00007 pmol(10^7 cells)^−1s^−1; in series [6] (100 nM radiolabel), 0.00046 ± 0.00002 pmol(10^7 cells)^−1s^−1; in series [7] (setting [19]), 0.082 ± 0.004 pmol(10^7 cells)^−1s^−1 and 0.081 ± 0.006 pmol(10^7 cells)^−1s^−1. Further, the rate of uptake was 0.082 ± 0.004 pmol(10^7 cells)^−1s^−1 and 0.086 ± 0.009 pmol(10^7 cells)^−1s^−1 in series [7] (100 nM radiolabel, listed as [^3H]-adenosine); 0.55 ± 0.05 pmol(10^7 cells)^−1s^−1 in series [8] (NT3-KO cells, 100 nM radiolabel); 0.00048 ± 0.00007 pmol(10^7 cells)^−1s^−1 in series [9] (NT1-KO cells, 50 nM radiolabel); 0.36 ± 0.03 pmol(10^7 cells)^−1s^−1 in series [12]. Moreover, in [6] (50 nM radiolabel), the “uptake reduced in SUPKO compared to cas9” value was found to be 99%. Moreover, in series [7] (0.1 µM [^3H]-thymidine, adenosine concentration and cell line not explicitly printed), the “inhibition of [^3H]-thymidine uptake” value is “fully inhibited”. In series [8] (adenosine and inosine at 100 nM, separate experiments listed singly, listed as [^3H]-adenosine), the “upregulation of uptake rate in NT3-KO relative to cas9” value is 4.0 fold and 6.4 fold. The “rate of uptake lower in NT1-KO than in cas9” value in series [9] (50 nM radiolabel) is on record as 99.4%. Moreover, in series [10], the Ki is 870 ± 150 nM. In addition, the inhibition at 1000 µM in [11] came out at 15.5 ± 11.7%. For the same molecule, the “effect of TcrNB2 expression on uptake in NT1-KO cells” value in series [13] is listed as “did not increase”.
As usually defined, the EC50 is the midpoint of the concentration-response curve. As to `O=c1[nH]cnc2c([C@@H]3O[C@H](CO)[C@@H](O)[C@H]3O)n[nH]c12` [formycin B], in series [14], the “sensitivity of cas9 cells in growth curve” value is reported as “confirmed”. For the same molecule, the EC50 in series [15] came out at 63500 ± 1900 nM; in [16] it was 18 ± 2 nM.
In general, Km refers to the concentration of substrate that gives half-maximal velocity. Take `O=c1cc[nH]c(=O)[nH]1` [uracil]: the rate of uptake in [1] (Lmex5FURes cells, 100 nM radiolabel) is reported as 0.00057 ± 0.0001 pmol(10^7 cells)^−1s^−1; in series [6] (100 nM radiolabel), 0.00032 ± 0.00003 pmol(10^7 cells)^−1s^−1; in series [7] (100 nM radiolabel), 0.00031 ± 0.00002 pmol(10^7 cells)^−1s^−1; in [3] (Lmex5FURes expressing FurD clone 2, 100 nM radiolabel), 0.29 ± 0.02 pmol(10^7 cells)^−1s^−1. The “uptake in SUPKO compared with cas9” value in [6] (100 nM [^3H]-uracil, n = 3, p = 0.81) is recorded as “identical”. Besides, the Ki in [17] is 320 ± 70 nM. In addition, in [9] (100 nM [^3H]-uracil), the “uptake in NT1-KO compared with cas9” value is given as “identical”. The Km in series [2] is 0.45 µM. Besides, the “effect of TcrNB2 expression on uptake in NT1-KO cells” value in series [13] is “did not increase”.

B1: Aspergillus nidulans uracil transporter FurD (Aspergillus nidulans) (protein)
chain: MRFGRFHLRVEQSRSAFASGNARWTNLDLDPVPRAGRVWGPLSFISYWISDAFNAATWQFASSIIAVGLSWRESLGIVALSFFIISFVIAANGAVGSIYHIPFPVIARASWGFWGSYIAIISRVILAIFWFAIQNVNGANAVKAMISAIWPSFLSMKNTIPQDQGIETNTMIAYMIFWIVQMPFLCIHPNKVRWLFATKSVLVPAAWIAILIWAFVAEGKGALFEQRATVSGSQYSWVWLASMTSVLGNYATLSVNQSDFSRYSRVSAKWQLLYIPLLPVIFTFISFIGIAASSAGWTRYNTPSIPWDPIELISHWDSRAARFFGAFSFALASLGVNISANSISAANDLMALFPTYVDLRRGQIICGVISWALVPWKILESASNFLNFMSAYAIFLGPIAAIMLWDFWLIKNRKYDTVALYQPDTPIYRFNAWLVNWRAVVAFLVGVIPSLPGLSNSVNSRIQVGVGIHPYQFGWLLGFVGTSLVYIALSYGFPVREALIERAVLSDEVYEGREVEGEGVEEGREELGESKREGVGKEKGFAVY
As to B1, the Km in series [18] stood at 0.89 ± 0.20 µM.
